Data on 21 molecules can be found in patent US9611275B2 (priority 2012, dated 2017).

The structures appear in SMILES notation. Where two headings read alike, the source gives them in different places.

One data set concerns the target human O-GlcNAcase (Homo sapiens (Human), UniProt O60502). The data set can be described thus: biochemical. As to conditions: for Ki: read-out: OGA KI. It counts as biochemical.
A short description of data set [1]: Assay for determination of apparent permeability (Papp), bi-directional transport. As to conditions: pig, LLC-PK1.
In data set [2] the target is O-GlcNAcase in rat PC-12 cells (Rattus norvegicus (Rat), UniProt Q8VIJ5). The data set can be described thus: cell-based.
Sequence of O-GlcNAcase in rat PC-12 cells (Q8VIJ5 whole entry): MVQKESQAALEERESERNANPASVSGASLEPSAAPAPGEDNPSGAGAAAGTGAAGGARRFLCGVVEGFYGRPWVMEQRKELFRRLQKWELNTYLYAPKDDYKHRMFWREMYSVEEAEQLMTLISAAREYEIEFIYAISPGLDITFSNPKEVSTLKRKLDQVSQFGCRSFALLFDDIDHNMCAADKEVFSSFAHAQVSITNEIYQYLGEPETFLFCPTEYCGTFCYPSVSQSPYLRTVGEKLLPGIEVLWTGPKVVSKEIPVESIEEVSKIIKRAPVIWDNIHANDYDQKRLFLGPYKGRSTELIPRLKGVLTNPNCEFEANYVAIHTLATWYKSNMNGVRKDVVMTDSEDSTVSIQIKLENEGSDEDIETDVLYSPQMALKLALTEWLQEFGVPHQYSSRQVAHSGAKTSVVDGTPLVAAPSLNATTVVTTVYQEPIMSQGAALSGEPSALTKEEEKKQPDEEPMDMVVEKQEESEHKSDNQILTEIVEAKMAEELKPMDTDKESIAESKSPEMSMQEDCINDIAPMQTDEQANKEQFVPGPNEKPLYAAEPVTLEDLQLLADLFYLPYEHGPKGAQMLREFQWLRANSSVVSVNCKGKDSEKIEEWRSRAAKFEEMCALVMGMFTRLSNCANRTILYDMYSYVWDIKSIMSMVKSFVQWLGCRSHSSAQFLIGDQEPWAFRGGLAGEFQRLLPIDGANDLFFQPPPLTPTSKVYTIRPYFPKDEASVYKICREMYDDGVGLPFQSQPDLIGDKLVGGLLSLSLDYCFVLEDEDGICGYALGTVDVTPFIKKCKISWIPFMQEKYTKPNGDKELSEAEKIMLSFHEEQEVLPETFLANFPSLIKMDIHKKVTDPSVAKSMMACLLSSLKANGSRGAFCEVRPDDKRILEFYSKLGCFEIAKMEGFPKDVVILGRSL
Source text: Assay for Determination of Cellular Activity for Compounds that Inhibit O-GlcNAcase Activity
Inhibition of O-GlcNAcase, which removes O-GlcNAc from cellular proteins, results in an increase in the level of O-GlcNAcylated protein in cells. An increase in O-GlcNAcylated protein can be measured by an antibody, such as RL-2, that binds to O-GlcNAcylated protein. The amount of O-GlcNAcylated protein:RL2 antibody interaction can be measured by enzyme linked immunosorbant assay (ELISA) procedures.
A variety of tissue culture cell lines, expressing endogenous levels of O-GlcNAcase, can be utilized; examples include rat PC-12, and human U-87, or SK-N-SH cells. In this assay, rat PC-12 cells were plated in 96-well plates with approximately 10,000 cells/well. Compounds to be tested were dissolved in DMSO, either 2 or 10 mM stock solution, and then diluted with DMSO and water in a two-step process using a Tecan workstation. […] To prepare a cell lysate, the media from compound treated cells was removed, the cells were washed once with phosphate buffered saline (PBS) and then lysed for 5 minutes at room temperature in 50 μL of Phosphosafe reagent (Novagen Inc, Madison, Wis.) with protease inhibitors and PMSF. The cell lysate was collected and transferred to a new plate, which was then either coated to assay plates directly or frozen −80° C. until used in the ELISA procedure. If desired, the total protein concentration of samples is determined using 20 μL of the sample using the BCA method.
The plate was sealed and incubated at 37° C. for 2 hr with gentle shaking. The wells were then washed 3-times with 300 μl/well wash buffer. […] The plate was incubated for 60 min at 37° C. with gentle shaking. Each well was then washed 3-times with 300 μl/well wash buffer. The detection reagent was added, 100 μL/well of Amplex Ultra RED reagent (prepared by adding 30 μL of 10 mM Amplex Ultra Red stock solution to 10 ml PBS with 18 μL 3% hydrogen peroxide, H2O2). The detection reaction was incubated for 15 minutes at room temperature and then read with excitation at 530 nm and emission at 590 nm.
Where [3] appears, read: purified human O-GlcNAcase 0.7 nM, pH 7.0, room temperature, Cheng-Prusoff.
Setting [4] is: rat PC-12 cells, 24 hours treatment, increase in O-GlcNAcylated protein, read-out: Cell based ELISA EC50.

Sequence of human O-GlcNAcase (O60502 whole entry): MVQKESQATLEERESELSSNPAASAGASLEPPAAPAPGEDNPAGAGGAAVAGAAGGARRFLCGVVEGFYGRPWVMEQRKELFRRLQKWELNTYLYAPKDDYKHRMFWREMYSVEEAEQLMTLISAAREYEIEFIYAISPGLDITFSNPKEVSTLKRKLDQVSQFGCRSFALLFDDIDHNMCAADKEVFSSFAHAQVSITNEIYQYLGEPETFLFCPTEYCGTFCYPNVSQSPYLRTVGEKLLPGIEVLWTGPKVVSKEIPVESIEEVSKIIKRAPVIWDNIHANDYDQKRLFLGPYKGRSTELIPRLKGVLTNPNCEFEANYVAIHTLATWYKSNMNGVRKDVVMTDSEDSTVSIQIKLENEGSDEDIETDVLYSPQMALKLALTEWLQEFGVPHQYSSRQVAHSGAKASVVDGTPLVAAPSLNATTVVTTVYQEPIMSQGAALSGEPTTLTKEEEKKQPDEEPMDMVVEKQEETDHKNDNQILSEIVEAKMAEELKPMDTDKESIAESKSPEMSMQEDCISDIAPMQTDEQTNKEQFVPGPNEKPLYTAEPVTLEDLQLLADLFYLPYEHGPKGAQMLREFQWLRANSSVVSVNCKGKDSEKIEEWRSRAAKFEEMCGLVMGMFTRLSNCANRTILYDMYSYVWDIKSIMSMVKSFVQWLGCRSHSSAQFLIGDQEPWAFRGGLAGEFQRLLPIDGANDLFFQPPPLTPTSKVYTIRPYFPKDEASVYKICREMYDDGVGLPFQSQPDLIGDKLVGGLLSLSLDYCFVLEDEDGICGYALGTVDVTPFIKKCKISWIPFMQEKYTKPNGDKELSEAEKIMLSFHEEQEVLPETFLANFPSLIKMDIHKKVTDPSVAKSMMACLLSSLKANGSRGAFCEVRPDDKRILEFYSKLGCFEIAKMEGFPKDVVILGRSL

By Ki is commonly meant the equilibrium dissociation constant of an inhibitor or competing ligand from its target. One may read the Papp as a coefficient for how fast a substance crosses the barrier. In the case of `CNC1=N[C@@H]2[C@@H](O)[C@H](O)[C@@H]([C@@H](OCc3ccc(C)cc3)C(F)(F)F)O[C@@H]2S1` [Example 85, (3aR,5S,6S,7R,7aR)-2-(methylamino)-5-((R)-2,2,2-trifluoro-1-(4-mcthylbenzyloxy)ethyl)-5,6,7,7a-tetrahydro-3aH-pyrano[3,2-d]thiazole-6,7-diol], on human O-GlcNAcase (setting [3]), the Ki is 3.11 nM. In data set [1], the Papp at 3 h, 1 μM came to 26.3 ×10⁻⁶ cm/s.

The term EC50 denotes the concentration giving half of the maximal effect. As to `CN(C)C1=N[C@@H]2[C@@H](O)[C@H](O)[C@@H]([C@@H](OCc3ccc(Cc4ccccc4)cc3)C(F)(F)F)O[C@@H]2S1` [Example 45, (3aR,5S,6S,7R,7aR)-5-((R)-1-(4-benzylbenzyloxy)-2,2,2-trifluoroethyl)-2-(dimethylamino)-5,6,7,7a-tetrahydro-3aH-pyrano[3,2-d]thiazole-6,7-diol], on human O-GlcNAcase, the Ki came out at 1.97 nM. Moreover, the EC50 in data set [2] is 128 nM.

Consider `CNC1=N[C@@H]2[C@@H](O)[C@H](O)[C@@H]([C@@H](OCc3ccc(CCF)cc3)C(F)(F)F)O[C@@H]2S1` [Example 87, (3aR,5S,6S,7R,7aR)-2-(methylamino)-5-((R)-2,2,2-trifluoro-1-(4-(2-fluoroethyl)benzyloxy)ethyl)-5,6,7,7a-tetrahydro-3aH-pyrano[3,2-d]thiazole-6,7-diol], for which the Ki on human O-GlcNAcase came out at 0.71 nM. Moreover, in data set [2], it took 46.4 nM to reach a half-maximal effect (EC50).

As for `CN(C)C1=N[C@@H]2[C@@H](O)[C@H](O)[C@@H](C(OCc3cccc(F)c3)C(F)(F)F)O[C@@H]2S1` (stereo in doubt) [Example 64, (3aR,5S,6S,7R,7aR)-2-(dimethylamino)-5-((S)-2,2,2-trifluoro-1-(3-fluorobenzyloxy)ethyl)-5,6,7,7a-tetrahydro-3aH-pyrano[3,2-d]thiazole-6,7-diol], at human O-GlcNAcase, the Ki is 1.32 nM. The concentration for a half-maximal effect (EC50) in data set [2] (setting [4]) was 8.43 nM. Further, in data set [1], the apparent permeability coefficient (Papp) at 3 h, 1 μM worked out at 29.9 ×10⁻⁶ cm/s.

Consider `CN(C)C1=N[C@@H]2[C@@H](O)[C@H](O)[C@@H]([C@@H](OCc3ccc(Oc4ccccc4)cc3)C(F)(F)F)O[C@@H]2S1` [Example 57, (3aR,5S,6S,7R,7aR)-2-(dimethylamino)-5-((R)-2,2,2-trifluoro-1-(4-phenoxybenzyloxy)ethyl)-5,6,7,7a-tetrahydro-3aH-pyrano[3,2-d]thiazole-6,7-diol], for which the Ki at human O-GlcNAcase is 1.11 nM. In data set [2], this molecule returned an EC50 of 62.1 nM. In addition, in data set [1], the Papp at 3 h, 1 μM amounted to 16.4 ×10⁻⁶ cm/s.

As for `CN(C)C1=N[C@@H]2[C@@H](O)[C@H](O)[C@@H]([C@@H](OCCC3CCCCC3)C(F)(F)F)O[C@@H]2S1` [Example 34, (3aR,5S,6S,7R,7aR)-5-((R)-1-(2-cyclohexylethoxy)-2,2,2-trifluoroethyl)-2-(dimethylamino)-5,6,7,7a-tetrahydro-3aH-pyrano[3,2-d]thiazole-6,7-diol], the Ki on human O-GlcNAcase (setting [3]) turned out to be 2.27 nM. The EC50 in data set [2] (setting [4]) amounted to 46.4 nM. The apparent permeability (Papp) at 3 h, 1 μM in data set [1] is 33.3 ×10⁻⁶ cm/s.

With `CNC1=N[C@@H]2[C@@H](O)[C@H](O)[C@@H]([C@](C)(O)C(F)(F)F)O[C@@H]2S1` [Example 158, (3aR,5S,6S,7R,7aR)-2-(methylamino)-5-((S)-1,1,1-trifluoro-2-hydroxypropan-2-yl)-5,6,7,7a-tetrahydro-3aH-pyrano[3,2-d]thiazole-6,7-diol], the inhibitory constant (Ki) on human O-GlcNAcase (comparative compounds described in PCT/US11/059668) amounted to 1.29 nM. In data set [1], the apparent permeability (Papp) at 3 h, 1 μM turned out to be 2.9 ×10⁻⁶ cm/s.

Regarding `CN(C)C1=N[C@@H]2[C@@H](O)[C@H](O)[C@@H]([C@@H](OCCCCCF)C(F)(F)F)O[C@@H]2S1` [Example 31, (3aR,5S,6S,7R,7aR)-2-(dimethylamino)-5-((R)-2,2,2-trifluoro-1-(5-fluoropentyloxy)ethyl)-5,6,7,7a-tetrahydro-3aH-pyrano[3,2-d]thiazole-6,7-diol], on human O-GlcNAcase (setting [3]), the Ki turned out to be 4.4 nM. In addition, the EC50 in data set [2] (setting [4]) was 22.3 nM. Further, the apparent permeability (Papp) at 3 h, 1 μM in data set [1] was 31.3 ×10⁻⁶ cm/s.

Consider `CN(C)C1=N[C@@H]2[C@@H](O)[C@H](O)[C@@H]([C@@H](OCc3ccc(OCCF)cc3)C(F)(F)F)O[C@@H]2S1` [Example 55, (3aR,5S,6S,7R,7aR)-2-(dimethylamino)-5-((R)-2,2,2-trifluoro-1-(4-(2-fluoroethoxy)benzyloxy)ethyl)-5,6,7,7a-tetrahydro-3aH-pyrano[3,2-d]thiazole-6,7-diol], for which the Ki on human O-GlcNAcase turned out to be 0.65 nM. For the same molecule, the EC50 in data set [2] worked out at 79.5 nM. In addition, the Papp at 3 h, 1 μM in data set [1] is 27.1 ×10⁻⁶ cm/s.

Consider `CCCO[C@H]([C@H]1O[C@@H]2SC(NC)=N[C@@H]2[C@@H](O)[C@@H]1O)C(F)(F)F` [Example 79, (3aR,5S,6S,7R,7aR)-2-(methylamino)-5-((R)-2,2,2-trifluoro-1-propoxyethyl)-5,6,7,7a-tetrahydro-3aH-pyrano[3,2-d]thiazole-6,7-diol], for which the Ki on human O-GlcNAcase (setting [3]) was determined as 3.77 nM. Besides, in data set [2] (setting [4]), the concentration giving a half-maximal response (EC50) was found to be 173 nM. Besides, the apparent permeability coefficient (Papp) at 3 h, 1 μM in data set [1] was 20.4 ×10⁻⁶ cm/s.

For the molecule `CN(C)C1=N[C@@H]2[C@@H](O)[C@H](O)[C@@H]([C@@H](OCc3ccc(F)cc3)C(F)(F)F)O[C@@H]2S1` [Example 65], the Ki at human O-GlcNAcase (setting [3]) was 1.02 nM. Further, the half-maximal effective concentration (EC50) in data set [2] (setting [4]) was 27.7 nM. The Papp at 3 h, 1 μM in data set [1] was determined as 28.8 ×10⁻⁶ cm/s.

`CN(C)C1=N[C@@H]2[C@@H](O)[C@H](O)[C@@H]([C@@H](OCc3cccnc3)C(F)(F)F)O[C@@H]2S1` [Example 42, (3aR,5S,6S,7R,7aR)-2-(dimethylamino)-5-((R)-2,2,2-trifluoro-1-(pyridin-3-ylmethoxy)ethyl)-5,6,7,7a-tetrahydro-3aH-pyrano[3,2-d]thiazole-6,7-diol]: the Ki on human O-GlcNAcase (setting [3]) amounted to 2.36 nM. Further, the EC50 in data set [2] (setting [4]) was found to be 120 nM. Further, the apparent permeability (Papp) at 3 h, 1 μM in data set [1] is 15.2 ×10⁻⁶ cm/s.

As to `CN(C)C1=N[C@@H]2[C@@H](O)[C@H](O)[C@@H]([C@@H](OCc3ccc(CCCF)cc3)C(F)(F)F)O[C@@H]2S1` [Example 71, (3aR,5S,6S,7R,7aR)-2-(dimethylamino)-5-((R)-2,2,2-trifluoro-1-(4-(3-fluoropropyl)benzyloxy)ethyl)-5,6,7,7a-tetrahydro-3aH-pyrano[3,2-d]thiazole-6,7-diol], the inhibitory constant (Ki) at human O-GlcNAcase (setting [3]) amounted to 0.78 nM. In addition, in data set [2] (setting [4]), the EC50 was found to be 30.8 nM. The Papp at 3 h, 1 μM in data set [1] was 34.6 ×10⁻⁶ cm/s.

Take `CN(C)C1=N[C@@H]2[C@@H](O)[C@H](O)[C@@H]([C@@H](OCc3ccc(CCF)cc3)C(F)(F)F)O[C@@H]2S1` [Example 70, (3aR,5S,6S,7R,7aR)-2-(dimethylamino)-5-((R)-2,2,2-trifluoro-1-(4-(2-fluoroethyl)benzyloxy)ethyl)-5,6,7,7a-tetrahydro-3aH-pyrano[3,2-d]thiazole-6,7-diol]: the Ki on human O-GlcNAcase (setting [3]) came out at 0.61 nM. In addition, the EC50 in data set [2] (setting [4]) came out at 17.8 nM. In addition, the Papp at 3 h, 1 μM in data set [1] was determined as 29.5 ×10⁻⁶ cm/s.

On to `CN(C)C1=N[C@@H]2[C@@H](O)[C@H](O)[C@@H]([C@@H](OCc3ccccc3)C(F)(F)F)O[C@@H]2S1` [Example 39, (3aR,5S,6S,7R,7aR)-5-((R)-1-(benzyloxy)-2,2,2-trifluoroethyl)-2-(dimethylamino)-5,6,7,7a-tetrahydro-3aH-pyrano[3,2-d]thiazole-6,7-diol], for which the Ki on human O-GlcNAcase (setting [3]) was determined as 2.43 nM. The EC50 in data set [2] (setting [4]) worked out at 36.2 nM.

As for `CNC1=N[C@@H]2[C@H]3OC(C)(C)O[C@@H]3[C@@H](C(OCc3ccc(F)cc3)C(F)(F)F)O[C@@H]2S1` (stereo in doubt) [Example 117, (1R,2R,6R,8S,9S)—N,11,11-trimethyl-8-[(1S)-2,2,2-trifluoro-1-[(4-fluorophenyl)methoxy]ethyl]-7,10,12-trioxa-5-thia-3-azatricyclo[7.3.0.0[2,6]]dodec-3-en-4-amine], the “KI values for inhibition of O-GlcNAcase” value at human O-GlcNAcase (units given within the value) is on record as “does not possess inhibitory activity in the aforementioned range”.

For the molecule `COc1ccc(CO[C@H]([C@H]2O[C@@H]3SC(N(C)C)=N[C@@H]3[C@@H](O)[C@@H]2O)C(F)(F)F)cc1C(F)(F)F` [Example 58, (3aR,5S,6S,7R,7aR)-2-(dimethylamino)-5-((R)-2,2,2-trifluoro-1-(4-methoxy-3-(trifluoromethyl)benzyloxy)ethyl)-5,6,7,7a-tetrahydro-3aH-pyrano[3,2-d]thiazole-6,7-diol], at human O-GlcNAcase (setting [3]), the Ki stood at 0.84 nM. In addition, the EC50 in data set [2] (setting [4]) was determined as 76.9 nM. Besides, the apparent permeability (Papp) at 3 h, 1 μM in data set [1] turned out to be 26.2 ×10⁻⁶ cm/s.

For `CN(C)C1=N[C@@H]2[C@@H](O)[C@H](O)[C@@H]([C@@H](OCc3ccccc3F)C(F)(F)F)O[C@@H]2S1` [Example 61, (3aR,5S,6S,7R,7aR)-2-(dimethylamino)-5-((R)-2,2,2-trifluoro-1-(2-fluorobenzyloxy)ethyl)-5,6,7,7a-tetrahydro-3aH-pyrano[3,2-d]thiazole-6,7-diol], at human O-GlcNAcase, the Ki was determined as 1.98 nM. Further, the EC50 in data set [2] amounted to 7.73 nM. Also, the Papp at 3 h, 1 μM in data set [1] worked out at 29 ×10⁻⁶ cm/s.

`CCNC1=N[C@@H]2[C@@H](O)[C@H](O)[C@@H]([C@@H](OCc3ccc(OC)cc3)C(F)(F)F)O[C@@H]2S1` [Example 96, (3aR,5S,6S,7R,7aR)-2-(ethylamino)-5-((R)-2,2,2-trifluoro-1-(4-methoxybenzyloxy)ethyl)-5,6,7,7a-tetrahydro-3aH-pyrano[3,2-d]thiazole-6,7-diol]: the inhibitory constant (Ki) on human O-GlcNAcase (setting [3]) is 12.5 nM. In data set [1], the Papp at 3 h, 1 μM was determined as 30.1 ×10⁻⁶ cm/s.

In the case of `CN(C)C1=N[C@@H]2[C@@H](O)[C@H](O)[C@@H]([C@@H](N(C)C)C(F)(F)F)O[C@@H]2S1` [Example 17, (3aR,5R,6S,7R,7aR)-2-(dimethylamino)-5-((R)-1-(dimethylamino)-2,2,2-trifluoroethyl)-5,6,7,7a-tetrahydro-3aH-pyrano[3,2-d]thiazole-6,7-diol], the Ki on human O-GlcNAcase (setting [3]) is 41.9 nM. Further, the apparent permeability coefficient (Papp) at 3 h, 1 μM in data set [1] worked out at 31.2 ×10⁻⁶ cm/s.

As to `CN(C)C1=N[C@@H]2[C@@H](O)[C@H](O)[C@@H]([C@@](CCc3ccccc3)(OCc3ccccc3)C(F)(F)F)O[C@@H]2S1` [Example 76, (3aR,5S,6S,7R,7aR)-5-((R)-2-(benzyloxy)-1,1,1-trifluoro-4-phenylbutan-2-yl)-2-(dimethylamino)-5,6,7,7a-tetrahydro-3aH-pyrano[3,2-d]thiazole-6,7-diol], at human O-GlcNAcase (setting [3]), the inhibition constant Ki came out at 726 nM.
